Experimental data taken from US11040976B2, “Substrate selective inhibitors of insulin-degrading enzyme (IDE) and uses thereof” (President and Fellows of Harvard College, priority 2015, dated 2021).
Counter-ions that a name gives are not always drawn.

target: T1, recombinant human IDE42-1019 (Homo sapiens, UniProt P14735); assay: Protease assay with fluorogenic peptide substrate Mca-[…](Dnp)-OH; assay type: biochemical; settings: fluorogenic peptide Mca-RPPGFSAFK(Dnp)-OH; apparent IC50 for compounds with submaximal inhibition; read-out: IC50 (μM) Proteolysis
T1 construct: recombinant human IDE42-1019 (R&D Systems); purchased R&D Systems
T1 sequence (P14735 42-1019): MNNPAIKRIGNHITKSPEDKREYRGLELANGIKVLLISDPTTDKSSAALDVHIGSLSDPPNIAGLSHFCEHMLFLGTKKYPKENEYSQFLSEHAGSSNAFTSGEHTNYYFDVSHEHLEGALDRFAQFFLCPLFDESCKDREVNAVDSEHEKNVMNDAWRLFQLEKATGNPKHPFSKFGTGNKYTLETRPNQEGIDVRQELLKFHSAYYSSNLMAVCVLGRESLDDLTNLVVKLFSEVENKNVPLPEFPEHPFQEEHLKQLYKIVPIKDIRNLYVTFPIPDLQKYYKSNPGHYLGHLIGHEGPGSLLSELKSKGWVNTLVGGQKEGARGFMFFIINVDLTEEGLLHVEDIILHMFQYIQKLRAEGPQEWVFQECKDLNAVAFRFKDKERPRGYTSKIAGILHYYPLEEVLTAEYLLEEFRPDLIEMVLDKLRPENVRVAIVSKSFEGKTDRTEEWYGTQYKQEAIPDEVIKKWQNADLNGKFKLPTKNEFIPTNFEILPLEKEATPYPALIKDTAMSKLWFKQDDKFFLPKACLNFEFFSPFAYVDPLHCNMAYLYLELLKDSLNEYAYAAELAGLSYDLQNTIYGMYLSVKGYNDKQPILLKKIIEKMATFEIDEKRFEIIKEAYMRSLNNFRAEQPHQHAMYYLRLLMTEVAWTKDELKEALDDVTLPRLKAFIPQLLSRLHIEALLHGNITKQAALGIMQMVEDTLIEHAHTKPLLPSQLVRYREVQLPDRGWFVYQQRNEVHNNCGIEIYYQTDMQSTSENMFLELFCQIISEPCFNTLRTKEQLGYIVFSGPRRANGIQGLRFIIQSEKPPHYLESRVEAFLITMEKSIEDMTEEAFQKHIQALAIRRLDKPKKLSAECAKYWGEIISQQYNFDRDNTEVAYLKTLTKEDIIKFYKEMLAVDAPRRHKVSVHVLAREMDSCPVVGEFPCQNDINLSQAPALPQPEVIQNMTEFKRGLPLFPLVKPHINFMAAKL
Procedure: The proteases IDE42-1019, recombinant human IDE42-1019 (R&D Systems), neprilysin (R&D), and angiotensin-converting enzyme (R&D) were assayed using the fluorophore/quencher-tagged peptide substrate Mca-[…](Dnp)-OH (SEQ ID NO: 24) (R&D) according to the manufacturer's instructions and using the recommended buffers (fluorophore Mca=(7-methoxycourmarin-4-yl)acetyl and quencher Dnp=2,4-dinitrophenyl). For IDE the recommended buffer is 50 mM Tris pH 7.5, 1 M NaCl. The enzyme mixtures (48 μL) were transferred to a 96-well plate and combined with 2 μL of inhibitor in DMSO solutions, in 3-fold dilution series. The mixtures were allowed to equilibrate for 10 minutes and the enzymatic reaction was started by addition of substrate peptide in assay buffer (50 μL), mixed, and monitored on a fluorescence plate reader (excitation at 320 nm, emission at 405 nm). Similarly, thimet oligopeptidase (R&D) and neurolysin (R&D) were assayed using substrate Mca-PLGPK(Dnp)-OH (SEQ ID NO: 25) (R&D) according to the manufacturer's instructions and using the recommended buffers. Matrix metalloproteinase-1 (R&D) was activated and assayed according to the manufacturer's instructions with substrate Mca-KPLGL-Dpa-AR-NH2 (SEQ ID NO: 20) (R&D) (quencher DPA=N-3-(2,4,dinitrophenyl)-L-2,3-diaminopropionyl). All assay data points were obtained in duplicate.

| IC50 | SMILES |
| --- | --- |
| 2.5 µM | Cc1ccccc1S(=O)(=O)NCCc1ccc(-c2cccc(C)c2C)cc1 [J3] |
| 0.3 µM | Cc1ccccc1S(=O)(=O)N1CCC(c2ccc(-c3cccc(C)c3C)cc2)CC1 [J6] |
| > 100 µM | Cc1ccccc1S(=O)(=O)N1CC=C(c2ccc(-c3cccc(C)c3C)cc2)CC1 [J7] |
| 2.5 µM | Cc1cccc(-c2ccc(N3CCN(C(=O)C4CCCCC4)CC3)cc2)c1C [J9] |
| 2.5 µM | Cc1cccc(-c2ccc(N3CCN(C(=O)C4CCCC4)CC3)cc2)c1C [J10] |
| 2.5 µM | Cc1cccc(-c2ccc(N3CCN(C(=O)CC4CCCCC4)CC3)cc2)c1C [J16] |
| 0.2 µM | Cc1cccc(-c2ccc(C3CCN(C(=O)c4ccc5nccnc5c4)CC3)cc2)c1C [J17] |
| 0.002 µM | Cc1ccccc1S(=O)(=O)N1CCCCN2C(C1)[C@H](c1ccc(-c3cccc(C)c3C)cc1)[C@H]2CN (stereo partly shown) [JP-8N] |
| 0.1 µM | Cc1cccc(-c2ccc([C@@H]3[C@@H](CN(C)C)N4CCCCN(S(=O)(=O)c5ccccc5C(F)(F)F)C[C@@H]34)cc2)c1C [JP-17-DMA] |
| 0.007 µM | CNC[C@@H]1[C@@H](c2ccc(-c3cccc(C)c3C)cc2)[C@@H]2CN(S(=O)(=O)c3ccccc3C(F)(F)F)CCCCN12 [JP-17-NHMe] |
| 0.05 µM | COC[C@@H]1[C@@H](c2ccc(-c3cccc(C)c3C)cc2)[C@@H]2CN(S(=O)(=O)c3ccccc3C(F)(F)F)CCCCN12 [JP-17-OMe] |
| 0.01 µM | Cc1cccc(-c2ccc([C@@H]3[C@@H](CF)N4CCCCN(S(=O)(=O)c5ccccc5C(F)(F)F)C[C@@H]34)cc2)c1C [JP-18 TFA salt] |
| 0.003 µM | Cc1ccccc1S(=O)(=O)N1C/C=C\CN2C(C1)[C@H](c1ccc(-c3cccc(Cl)c3C)cc1)[C@H]2CO (stereo partly shown) [JP-28] |
| 3 µM | Cc1cc(O)ccc1-c1ccc([C@@H]2[C@@H](CO)N3CCCCN(S(=O)(=O)c4ccccc4C)C[C@@H]23)cc1 [JP-31] |
| 0.06 µM | Cc1c(Cl)cccc1-c1ccc([C@H]2C3CN(S(=O)(=O)c4ccccc4C(F)(F)F)C/C=C\CN3[C@@H]2CF)cc1 (stereo partly shown) [JP-38] |
| 0.8 µM | Cc1cc(F)ccc1-c1ccc([C@@H]2[C@@H](CO)N3CCCCN(S(=O)(=O)c4ccccc4C)C[C@@H]23)cc1 [JP-39] |
| 0.09 µM | COC[C@@H]1[C@@H](c2ccc(-c3ccc(F)c(C)c3C)cc2)[C@@H]2CN(S(=O)(=O)c3ccccc3C(F)(F)F)CCCCN12 [JP-41-OMe] |
| 0.03 µM | Cc1c(F)ccc(-c2ccc([C@@H]3[C@@H](CO)N4CCCCN(S(=O)(=O)c5ccccc5C(F)(F)F)C[C@@H]34)cc2)c1C [JP-41] |
| 0.008 µM | Cc1c(F)ccc(-c2ccc([C@@H]3[C@@H](CO)N4CCCCN(S(=O)(=O)c5cnc(C)n5C)C[C@@H]34)cc2)c1C [JP-42] |
| 0.15 µM | COC[C@@H]1[C@@H](c2ccc(-c3ccc(F)c(C)c3C)cc2)[C@@H]2CN(S(=O)(=O)c3nccn3C)CCCCN12 [JP-43-OMe] |
| 0.004 µM | Cc1c(F)ccc(-c2ccc([C@@H]3[C@@H](CO)N4CCCCN(S(=O)(=O)c5nccn5C)C[C@@H]34)cc2)c1C [JP-43] |
| 0.5 µM | COc1cc(N)ccc1S(=O)(=O)N1CCCCN2[C@H](CO)[C@@H](c3ccc(-c4cccc(C)c4C)cc3)[C@@H]2C1 [JP-S5] |
| > 0.2 µM | COC[C@@H]1[C@@H](c2ccc(-c3cccc(C)c3C)cc2)[C@@H]2CN(S(=O)(=O)c3ccnn3C(C)C)CCCCN12 [JP-S10-OMe] |
| 0.015 µM | Cc1cccc(-c2ccc([C@@H]3[C@@H](CO)N4CCCCN(S(=O)(=O)c5ccnn5C(C)C)C[C@@H]34)cc2)c1C [JP-S10] |
| 0.03 µM | CC(=O)Nc1ccc(S(=O)(=O)N2CCCCN3[C@H](CO)[C@@H](c4ccc(-c5cccc(C)c5C)cc4)[C@@H]3C2)c(C)c1 [JP-S12] |
| 0.1 µM | Cc1cc2c(cc1S(=O)(=O)N1CCCCN3[C@H](CO)[C@@H](c4ccc(-c5cccc(C)c5C)cc4)[C@@H]3C1)OCC(=O)N2 [JP-S13] |
| 0.05 µM | Cc1cccc(-c2ccc([C@@H]3[C@@H](CO)N4CCCCN(S(=O)(=O)c5ccc(F)cc5C(F)(F)F)C[C@@H]34)cc2)c1C [JP-S15] |
| 0.03 µM | CCCn1nccc1S(=O)(=O)N1C/C=C\CN2C(C1)[C@H](c1ccc(-c3cccc(C)c3C)cc1)[C@H]2CO (stereo partly shown) [JP-S16] |
